This note sets out measurements from ChEMBL document CHEMBL3414495, “Multi-target tacrine-coumarin hybrids: cholinesterase and monoamine oxidase B inhibition properties against Alzheimer's disease” (Eur J Med Chem, 2015).

For series [1], the target named is Acetylcholinesterase (Electrophorus electricus, UniProt O42275).
Description: Inhibition of electric eel AChE using acetylthiocholine iodide as substrate incubated for 6 mins prior to substrate addition measured after 60 to 180 secs by Ellman method
The target of series [2] is T1, Amine oxidase [flavin-containing] B (Homo sapiens, UniProt P27338).
T1 sequence (P27338 whole entry): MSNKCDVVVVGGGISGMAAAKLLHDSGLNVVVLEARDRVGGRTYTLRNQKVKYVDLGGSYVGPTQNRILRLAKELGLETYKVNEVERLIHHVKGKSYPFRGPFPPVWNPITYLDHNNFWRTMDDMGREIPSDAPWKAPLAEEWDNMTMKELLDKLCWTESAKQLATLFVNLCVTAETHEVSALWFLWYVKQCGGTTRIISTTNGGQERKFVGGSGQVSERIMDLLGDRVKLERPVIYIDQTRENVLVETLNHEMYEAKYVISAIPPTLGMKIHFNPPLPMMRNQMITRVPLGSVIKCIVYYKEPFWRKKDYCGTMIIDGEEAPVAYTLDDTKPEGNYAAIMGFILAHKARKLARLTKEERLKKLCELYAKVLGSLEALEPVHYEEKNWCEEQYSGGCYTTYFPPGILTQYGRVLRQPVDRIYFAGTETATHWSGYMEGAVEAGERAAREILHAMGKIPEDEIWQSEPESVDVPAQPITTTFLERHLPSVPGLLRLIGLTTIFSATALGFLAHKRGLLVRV
Description: Inhibition of human MAO-B using p-tyramine as substrate assessed as H2O2 production by amplex red assay

Series [3] concerns the target T2, Amine oxidase [flavin-containing] A (Homo sapiens, UniProt P21397).
T2 sequence (P21397 whole entry): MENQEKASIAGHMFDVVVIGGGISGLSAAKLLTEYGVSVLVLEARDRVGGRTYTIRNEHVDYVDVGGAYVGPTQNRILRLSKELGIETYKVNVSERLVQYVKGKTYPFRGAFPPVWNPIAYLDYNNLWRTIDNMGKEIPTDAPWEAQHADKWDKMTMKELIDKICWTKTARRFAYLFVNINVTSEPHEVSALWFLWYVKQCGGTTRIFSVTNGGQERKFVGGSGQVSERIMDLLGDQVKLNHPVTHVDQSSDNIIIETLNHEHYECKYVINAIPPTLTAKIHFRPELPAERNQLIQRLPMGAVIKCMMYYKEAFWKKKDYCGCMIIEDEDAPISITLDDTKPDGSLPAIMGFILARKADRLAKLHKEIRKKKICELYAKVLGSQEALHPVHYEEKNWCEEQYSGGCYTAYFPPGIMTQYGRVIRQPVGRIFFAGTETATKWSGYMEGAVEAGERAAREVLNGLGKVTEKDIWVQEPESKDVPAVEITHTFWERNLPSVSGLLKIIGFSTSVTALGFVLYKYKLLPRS
The series is described as follows: Inhibition of human MAO-A using p-tyramine as substrate assessed as H2O2 production by amplex red assay.

Series [4] can be described thus: in vitro. The following applies: PAMPA.
Description: Permeability of the compound after 16 hrs by PAMPA
The species entered for series [5] is Homo sapiens. Kind of series: Selectivity index, ratio of IC50 for human MAO-A to IC50 for human MAO-B.
In series [6] the target is Cholinesterase (Equus caballus, UniProt P81908).
Sequence of Cholinesterase (Equus caballus, UniProt P81908) (P81908 whole entry): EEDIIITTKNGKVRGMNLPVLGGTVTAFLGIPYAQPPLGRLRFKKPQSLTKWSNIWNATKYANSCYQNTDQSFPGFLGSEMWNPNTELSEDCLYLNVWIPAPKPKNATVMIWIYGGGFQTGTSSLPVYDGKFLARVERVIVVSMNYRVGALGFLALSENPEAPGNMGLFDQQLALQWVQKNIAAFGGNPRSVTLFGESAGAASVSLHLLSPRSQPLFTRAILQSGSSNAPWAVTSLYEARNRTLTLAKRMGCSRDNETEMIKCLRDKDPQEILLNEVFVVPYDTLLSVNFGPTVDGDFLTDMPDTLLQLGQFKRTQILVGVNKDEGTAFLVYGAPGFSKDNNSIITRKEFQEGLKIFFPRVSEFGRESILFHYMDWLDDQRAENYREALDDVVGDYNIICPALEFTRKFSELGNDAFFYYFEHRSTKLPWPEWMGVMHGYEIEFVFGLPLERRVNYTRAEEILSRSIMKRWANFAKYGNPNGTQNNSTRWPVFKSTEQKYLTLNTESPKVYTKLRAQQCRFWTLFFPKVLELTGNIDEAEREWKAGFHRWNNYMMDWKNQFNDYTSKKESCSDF
Description: Inhibition of horse serum BuChE using S-butyrylthiocholine iodide as substrate incubated for 6 mins prior to substrate addition measured after 60 to 180 secs by Ellman method
For series [7], the target named is T2, Amine oxidase [flavin-containing] A. Kind of series: Inhibition of human MAO-A using p-tyramine as substrate assessed as H2O2 production at 200 uM by amplex red assay.
Series [8] shares this target. The series is described as follows: Inhibition of human MAO-A using p-tyramine as substrate assessed as H2O2 production at 100 uM by amplex red assay.
Series [9] concerns the target T1, Amine oxidase [flavin-containing] B. Kind of series: Inhibition of human MAO-B using p-tyramine as substrate assessed as H2O2 production at 200 uM by amplex red assay.
For series [10] the target is unchanged. The series is described as follows: Inhibition of MAO-B (unknown origin).
For series [11], the target named is Cholinesterase (Homo sapiens, UniProt P06276). The series is described as follows: Inhibition of human BuChE using S-butyrylthiocholine iodide as substrate incubated for 6 mins prior to substrate addition measured after 60 to 180 secs by Ellman method. A general note: Ellman's reagent forms a yellow product with free thiols.
Sequence of Cholinesterase (Homo sapiens, UniProt P06276) (P06276 whole entry): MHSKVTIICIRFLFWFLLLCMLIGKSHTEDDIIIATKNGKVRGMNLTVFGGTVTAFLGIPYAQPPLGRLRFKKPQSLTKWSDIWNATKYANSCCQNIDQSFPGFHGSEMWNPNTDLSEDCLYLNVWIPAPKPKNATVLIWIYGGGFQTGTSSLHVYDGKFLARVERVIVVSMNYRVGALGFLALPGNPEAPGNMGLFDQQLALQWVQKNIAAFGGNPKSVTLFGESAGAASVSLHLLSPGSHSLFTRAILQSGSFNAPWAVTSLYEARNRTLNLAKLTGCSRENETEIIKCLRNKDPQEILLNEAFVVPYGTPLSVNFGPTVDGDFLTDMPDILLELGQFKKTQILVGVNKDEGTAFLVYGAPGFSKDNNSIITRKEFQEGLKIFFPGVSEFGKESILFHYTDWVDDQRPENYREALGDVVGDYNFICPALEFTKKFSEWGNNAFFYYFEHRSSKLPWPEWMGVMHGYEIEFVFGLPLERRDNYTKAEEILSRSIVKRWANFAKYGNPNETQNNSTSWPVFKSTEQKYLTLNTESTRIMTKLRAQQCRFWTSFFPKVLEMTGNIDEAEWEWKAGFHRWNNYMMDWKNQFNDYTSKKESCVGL
For series [12], the target named is Acetylcholinesterase (Homo sapiens, UniProt P22303). Kind of series: Inhibition of human AChE using acetylthiocholine iodide as substrate incubated for 6 mins prior to substrate addition measured after 60 to 180 secs by Ellman method.
Sequence of Acetylcholinesterase (Homo sapiens, UniProt P22303) (P22303 whole entry): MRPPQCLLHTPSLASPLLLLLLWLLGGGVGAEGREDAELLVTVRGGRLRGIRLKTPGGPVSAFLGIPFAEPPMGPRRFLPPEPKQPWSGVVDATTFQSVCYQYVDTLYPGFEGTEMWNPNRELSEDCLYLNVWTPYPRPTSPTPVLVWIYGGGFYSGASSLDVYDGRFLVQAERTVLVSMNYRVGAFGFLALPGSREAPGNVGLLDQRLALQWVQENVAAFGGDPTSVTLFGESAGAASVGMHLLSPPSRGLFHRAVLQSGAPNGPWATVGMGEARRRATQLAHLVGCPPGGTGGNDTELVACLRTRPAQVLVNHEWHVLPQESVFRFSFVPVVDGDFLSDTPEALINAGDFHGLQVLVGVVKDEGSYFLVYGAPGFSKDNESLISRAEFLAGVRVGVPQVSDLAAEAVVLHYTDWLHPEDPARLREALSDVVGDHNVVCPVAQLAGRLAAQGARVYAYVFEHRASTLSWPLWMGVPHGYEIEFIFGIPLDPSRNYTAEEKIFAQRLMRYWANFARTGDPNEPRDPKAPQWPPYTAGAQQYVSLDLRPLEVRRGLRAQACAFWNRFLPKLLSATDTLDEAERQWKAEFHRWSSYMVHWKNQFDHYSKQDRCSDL

Sequence of Acetylcholinesterase (Electrophorus electricus, UniProt O42275) (O42275 whole entry): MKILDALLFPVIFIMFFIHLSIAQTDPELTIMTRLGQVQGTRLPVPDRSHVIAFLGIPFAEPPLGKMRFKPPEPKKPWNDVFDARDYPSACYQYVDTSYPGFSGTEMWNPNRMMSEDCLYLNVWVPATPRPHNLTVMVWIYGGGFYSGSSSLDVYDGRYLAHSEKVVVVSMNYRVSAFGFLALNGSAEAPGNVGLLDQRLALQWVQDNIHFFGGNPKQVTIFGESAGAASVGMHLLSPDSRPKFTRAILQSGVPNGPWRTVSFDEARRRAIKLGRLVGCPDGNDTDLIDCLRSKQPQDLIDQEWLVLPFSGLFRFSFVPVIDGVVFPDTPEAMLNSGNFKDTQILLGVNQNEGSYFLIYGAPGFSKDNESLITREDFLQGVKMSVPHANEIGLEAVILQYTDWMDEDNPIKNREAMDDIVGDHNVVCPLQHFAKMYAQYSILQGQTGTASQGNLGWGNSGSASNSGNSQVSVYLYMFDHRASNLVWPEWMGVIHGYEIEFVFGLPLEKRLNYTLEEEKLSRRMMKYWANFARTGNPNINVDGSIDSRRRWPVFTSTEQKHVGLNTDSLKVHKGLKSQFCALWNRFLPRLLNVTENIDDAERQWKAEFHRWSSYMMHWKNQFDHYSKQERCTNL

As for `O=c1ccc2ccc(OCCCCCN3CCN(CCNc4c5c(nc6ccccc46)CCCC5)CC3)cc2o1`, the IC50 (in general, the point on the concentration scale where inhibition reaches its midpoint) in series [1] came out at 139 nM; in series [2] it was 1590 nM; in series [3] it was 9180 nM; in series [6], 32.2 nM. In addition, the Papp (usually a coefficient for how fast a substance crosses the barrier) at 16 h in series [4] was 6.5 ×10⁻⁶ cm/s. The Ratio IC50 in series [5] came out at 5.77.
`O=c1ccc2ccc(OCCCN3CCN(CCNc4c5c(nc6ccccc46)CCCC5)CC3)cc2o1`: the values for the IC50 in [1], in series [2] and in series [6] were 48.4 nM, 2370 nM and 16.1 nM, respectively. Further, the Papp at 16 h in series [4] is 3.43 ×10⁻⁶ cm/s. For the same compound, the Ratio IC50 in [5] is more than 84.4. In addition, the “inhibition (INH)” value in series [7] is listed as “Not Active”.
With `O=c1ccc2ccc(OCCCN3CCN(CCCNc4c5c(nc6ccccc46)CCCC5)CC3)cc2o1`, the IC50 was found to be 24.2 nM in series [1], 2260 nM in series [2] and 31.6 nM in [6]. The compound further registered a Papp at 16 h in [4] of 1.45 ×10⁻⁶ cm/s. Further, the Ratio IC50 in [5] is more than 88.5. In addition, in series [7], the “inhibition (INH)” value is “Not Active”.
Take `O=c1ccc2ccc(OCCN3CCN(CCCNc4c5c(nc6ccccc46)CCCC5)CC3)cc2o1`: the IC50 in [1] came out at 17.7 nM; in series [2], 2000 nM; in series [6], 38 nM. In [4], this compound registered a Papp at 16 h of 1.21 ×10⁻⁶ cm/s. The Ratio IC50 in series [5] is more than 100. Besides, in series [7], the “inhibition (INH)” value is recorded as “Not Active”.
On to `O=c1ccc2ccc(OCCCCCN3CCN(CCCNc4c5c(nc6ccccc46)CCCC5)CC3)cc2o1`, for which the IC50 in series [1] came out at 48.4 nM; in series [2] it was 2290 nM; in [3], 10300 nM; in series [6], 41.8 nM. Besides, in series [4], the Papp at 16 h stood at 2.37 ×10⁻⁶ cm/s. In series [5], the Ratio IC50 was 4.52.
For `O=c1oc2cc(OCCN3CCN(CCCNc4c5c(nc6ccccc46)CCCC5)CC3)ccc2c2c1CCCC2`, the IC50 in [1] is 144 nM; in series [2], 1520 nM; in series [3], 22000 nM; in series [6], 159 nM. The compound further gave a Papp at 16 h in series [4] of 3.01 ×10⁻⁶ cm/s. Also, the Ratio IC50 in series [5] came to 14.4.
In the case of `COc1cc(=O)oc2cc(OCCN3CCN(CCCNc4c5c(nc6ccccc46)CCCC5)CC3)ccc12`, the IC50 in [1] came out at 44.7 nM; in series [2], 5770 nM; in series [6] it was 116 nM. Further, in [8], the “inhibition (INH)” value is given as “Not Active”. This compound displayed a Papp at 16 h in [4] of 1.96 ×10⁻⁶ cm/s. Moreover, the Ratio IC50 in [5] is more than 17.3.
For `Nc1cc(=O)oc2cc(OCCN3CCN(CCCNc4c5c(nc6ccccc46)CCCC5)CC3)ccc12`, the IC50 in series [1] was 38.7 nM; in series [2] it was 38000 nM; in [6], 70.7 nM. Moreover, the “inhibition (INH)” value in series [8] is recorded as “Not Active”. This compound also had a Papp at 16 h in series [4] of 0.78 ×10⁻⁶ cm/s. In series [5], the Ratio IC50 is more than 2.63.
Take `CCOc1cc(=O)oc2cc(OCCN3CCN(CCCNc4c5c(nc6ccccc46)CCCC5)CC3)ccc12`: the IC50 in series [1] was determined as 51.1 nM; in series [2] it was 25700 nM; in [3], 78600 nM; in [6] it was 86.6 nM. In addition, the Papp at 16 h in [4] turned out to be 2.74 ×10⁻⁶ cm/s. Further, the Ratio IC50 in [5] stood at 3.05.
With `O=c1ccc2ccc(OCCN3CCN(CCNc4c5c(nc6ccccc46)CCCC5)CC3)cc2o1`, the results for the IC50 in series [1], in [2] and in [6] were 69.4 nM, 4560 nM and 43.4 nM, respectively. The same compound yielded a Papp at 16 h in series [4] of 2.13 ×10⁻⁶ cm/s. For the same compound, the Ratio IC50 in series [5] is more than 43.9. The “inhibition (INH)” value in series [7] is reported as “Not Active”.
Consider `O=c1cc(-c2ccccc2)c2ccc(OCCN3CCN(CCCNc4c5c(nc6ccccc46)CCCC5)CC3)cc2o1`, for which the values for the IC50 in series [1] and in [6] were 195 nM and 216 nM, respectively. Further, the “inhibition (INH)” value in [8] and in [9] was “Not Active” throughout. In series [4], this compound gave a Papp at 16 h of 7.59 ×10⁻⁶ cm/s.
For `O=c1ccc2ccc(OCCCCN3CCN(CCCNc4c5c(nc6ccccc46)CCCC5)CC3)cc2o1`, the IC50 in series [1] stood at 36 nM; in [2] it was 3450 nM; in [6], 23 nM. Also, in series [4], the Papp at 16 h was 2.04 ×10⁻⁶ cm/s. Also, in series [5], the Ratio IC50 was more than 58. For the same compound, the “inhibition (INH)” value in [7] is “Not Active”.
`O=c1ccc2ccc(OCCCCN3CCN(CCNc4c5c(nc6ccccc46)CCCC5)CC3)cc2o1`: the IC50 in series [1] was 92.1 nM; in series [2] it was 780 nM; in [6], 20.9 nM. The compound also showed a Papp at 16 h in series [4] of 5.23 ×10⁻⁶ cm/s. For the same compound, in [5], the Ratio IC50 was more than 256. In series [7], the “inhibition (INH)” value was “Not Active”.
Turning to `O=c1ccc2ccc(OCCCCCCN3CCN(CCNc4c5c(nc6ccccc46)CCCC5)CC3)cc2o1`, the IC50 in series [1] amounted to 330 nM; in series [2] it was 5280 nM; in series [3] it was 6020 nM; in series [6] it was 58.6 nM. In addition, the Papp at 16 h in series [4] was found to be 6.96 ×10⁻⁶ cm/s. Further, the Ratio IC50 in series [5] came out at 1.14.
Consider `Cc1cc2ccc(OCCN3CCN(CCCNc4c5c(nc6ccccc46)CCCC5)CC3)cc2oc1=O`, for which the IC50 came out at 56.6 nM in series [1], 540 nM in series [2] and 55 nM in series [6]. Moreover, the “inhibition (INH)” value in [8] is listed as “Not Active”. In series [4], this compound had a Papp at 16 h of 2.95 ×10⁻⁶ cm/s. In series [5], the Ratio IC50 is more than 185.
Take `Cc1cc(=O)oc2cc(OCCN3CCN(CCCNc4c5c(nc6ccccc46)CCCC5)CC3)ccc12`: the IC50 worked out at 39.1 nM in series [1], 1770 nM in series [2], 66700 nM in series [3] and 50.8 nM in series [6]. In series [4], this compound had a Papp at 16 h of 1.9 ×10⁻⁶ cm/s. Besides, the Ratio IC50 in [5] was 37.7.
In the case of `O=c1ccc2ccc(OCCCCCCN3CCN(CCCNc4c5c(nc6ccccc46)CCCC5)CC3)cc2o1`, the IC50 in series [1] is 66.2 nM; in series [2], 9510 nM; in series [3], 6050 nM; in series [6] it was 38.5 nM. The Papp at 16 h in [4] was 3.4 ×10⁻⁶ cm/s. In series [5], the Ratio IC50 came out at 0.64.
Consider `Cc1c(C)c2ccc(OCc3nnc(C(C)C)s3)cc2oc1=O` [ATIBEPRONE], for which half-maximal inhibition in series [10] (IC50) required 0.9 nM.
For `O=c1cc(C(F)(F)F)c2ccc(OCCN3CCN(CCCNc4c5c(nc6ccccc46)CCCC5)CC3)cc2o1`, the IC50 amounted to 67 nM in series [1], 28800 nM in series [2] and 149 nM in series [6]. Further, in series [8], the “inhibition (INH)” value was “Not Active”. In [4], this compound registered a Papp at 16 h of 5.58 ×10⁻⁶ cm/s. Moreover, in series [5], the Ratio IC50 was more than 3.48.
`Cc1c(Cl)c(=O)oc2cc(OCCN3CCN(CCCNc4c5c(nc6ccccc46)CCCC5)CC3)ccc12`: the IC50 came out at 31.9 nM in [1]; 700 nM in series [2]; 53100 nM in [3]; 124 nM in series [11]; 24.4 nM in [12]; 72.6 nM in series [6]. Further, the Papp at 16 h in series [4] was 5.37 ×10⁻⁶ cm/s. For the same compound, the Ratio IC50 in [5] was 75.7.
